For orientation: pEC50 means the negative decadic logarithm of the EC50, by convention in mol/L.

The results in this text go back to patent US11655268B2, “Nucleoside or nucleotide derivatives, and uses thereof” (ST Pharm Co., Ltd., priority 2018, dated 2023).

Data set [1] is described as follows: Cytotoxicity (CC50) in Vero cells. The conditions noted are these: African green monkey, CC50 (DENV), Vero cells, DENV test.
The next data set has as its system DENV. Put plainly: Reduction in viral infection, dengue virus in Vero cells, immunofluorescence (4G2 antibody). In kind it is cell-based, Dengue virus New Guinea C (NGC). The conditions noted are these: 72 h, read-out: EC50 DENV.
A further data set in a line: in vitro. To be noted: dog.
The next data set deals with Influenza virus B/Lee/40. The data set can be described thus: Cytopathic effect reduction, influenza B Lee in MDCK cells, MTT. The conditions noted are these: for Selectivity index FluB Lee: CC50/EC50; for pEC50: MDCK, 72 h, read-out: Anti-Flu activity EC50 FluB Lee. It counts as cell-based. On the technique in general: Protection from cytopathic effect is a common read-out in antiviral testing.

SMILES strings stand for the structures. pEC50: −log10 of the molar value. Structures can show the parent of a compound that is named as a salt.

With `O=C(Nc1ccn(C2O[C@H](CO)[C@@H](O)[C@H]2F)c(=O)n1)c1cccnc1` (stereo in doubt) [Example 26, N-(1-((2S,3R,4R,5R)-3-fluoro-4-hydroxy-5-(hydroxymethyl)tetrahydrofuran-2-yl)-2-oxo-1,2-dihydropyrimidin-4-yl)nicotinamide], in data set [1], the CC50 at 3 days is above 100 µM. In addition, the negative-log EC50 (pEC50) with DENV is 4.24.

Take `O=C(Nc1ccn(C2O[C@H](CO)[C@@H](O)[C@H]2F)c(=O)n1)c1ccc(C(F)(F)F)nc1` (stereo in doubt) [Example 41, N-(1-((2S,3R,4R,5R)-3-fluoro-4-hydroxy-5-(hydroxymethyl)tetrahydrofuran-2-yl)-2-oxo-1,2-dihydropyrimidin-4-yl)-6-(trifluoromethyl)nicotinamide]: the CC50 at 3 days in the data set “in vitro” was above 100 µM. Besides, in the data set with Influenza virus B/Lee/40, the “Selectivity index FluB Lee” value is given as above 5.3 and the pEC50 was 4.72.

Turning to `O=C(Nc1ccn(C2O[C@H](CO)[C@@H](O)[C@H]2F)c(=O)n1)c1ccc(F)nc1` (stereo in doubt) [Example 42, 6-Fluoro-N-(1-((2S,3R,4R,5R)-3-fluoro-4-hydroxy-5-(hydroxymethyl)tetrahydrofuran-2-yl)-2-oxo-1,2-dihydropyrimidin-4-yl)nicotinamide], the CC50 at 3 days in the data set “in vitro” was above 100 µM. In addition, in the data set with Influenza virus B/Lee/40, the “Selectivity index FluB Lee” value is recorded as above 5.5 and the pEC50 was 4.74.

In the data set “in vitro”, `NC12CC3CC(CC(C3)C1)C2` [AMT, amantadine hydrochloride, reference compound] had a CC50 above 100 µM. The pEC50 in the data set on Influenza virus B/Lee/40 was below 4.00.

`O=C(Nc1ccn([C@@H]2O[C@H](CO)[C@@H](O)C2(F)F)c(=O)n1)c1ccc(C(F)(F)F)nc1` [Example 14, N-(1-((2R,4R,5R)-3,3-difluoro-4-hydroxy-5-(hydroxymethyl)tetrahydrofuran-2-yl)-2-oxo-1,2-dihydropyrimidin-4-yl)-6-(trifluoromethyl)nicotinamide] displayed a CC50 at 3 days in the data set “in vitro” above 100 µM. For the same compound, in the data set with Influenza virus B/Lee/40, the “Selectivity index FluB Lee” value is on record as above 32.3 and the pEC50 was 5.51.

Regarding `Cn1cc(C(=O)Nc2ccn([C@@H]3O[C@H](CO)[C@@H](O)C3(F)F)c(=O)n2)cn1` [Example 15, N-(1-((2R,4R,5R)-3,3-difluoro-4-hydroxy-5-(hydroxymethyl)tetrahydrofuran-2-yl)-2-oxo-1,2-dihydropyrimidin-4-yl)-1-methyl-1H-pyrazole-4-carboxamide], in “in vitro”, the CC50 at 3 days is above 100 µM. In the data set with Influenza virus B/Lee/40, the “Selectivity index FluB Lee” value turned out to be 12.5 and the pEC50 was 5.10.

Consider `O=C(Nc1ccn([C@@H]2O[C@H](CO)[C@@H](O)C2(F)F)c(=O)n1)c1cccc(-c2ccccc2)n1` [Example 17, N-(1-((2R,4R,5R)-3,3-difluoro-4-hydroxy-5-(hydroxymethyl)tetrahydrofuran-2-yl)-2-oxo-1,2-dihydropyrimidin-4-yl)-6-phenylpicolinamide], for which the CC50 at 3 days in data set [1] is 58.9 µM; in “in vitro”, above 100 µM. Besides, the pEC50 was above 5.92 in the data set on DENV and 5.62 with Influenza virus B/Lee/40. In the data set on Influenza virus B/Lee/40, the “Selectivity index FluB Lee” value is above 41.7.

Regarding `O=C(Nc1ccn([C@@H]2O[C@H](CO)[C@@H](O)C2(F)F)c(=O)n1)c1ccc([N+](=O)[O-])cn1` [Example 19, N-(1-((2R,4R,5R)-3,3-difluoro-4-hydroxy-5-(hydroxymethyl)tetrahydrofuran-2-yl)-2-oxo-1,2-dihydropyrimidin-4-yl)-5-nitropicolinamide], the CC50 at 3 days in data set [1] was below 1.2 µM; in “in vitro” it was above 100 µM. The pEC50 in the data set on DENV and with Influenza virus B/Lee/40 was above 5.92 in each case. Further, the “Selectivity index FluB Lee” value with Influenza virus B/Lee/40 is recorded as above 83.3.

As to `Cl.Nc1ccc(C(=O)Nc2ccn([C@@H]3O[C@H](CO)[C@@H](O)C3(F)F)c(=O)n2)nc1` [Example 20, 5-amino-N-(1-((2R,4R,5R)-3,3-difluoro-4-hydroxy-5-(hydroxymethyl)tetrahydrofuran-2-yl)-2-oxo-1,2-dihydropyrimidin-4-yl)picolinamide-hydrochloride], the CC50 at 3 days in data set [1] was determined as 75.9 µM. Moreover, the pEC50 in the data set with DENV was 5.80. The compound also had a CC50 in the data set “in vitro” above 100 µM. In the data set on Influenza virus B/Lee/40, the “Selectivity index FluB Lee” value is reported as above 5.1 and the negative logarithm of the EC50 (pEC50) is 4.71.

Turning to `COc1ccc(C(=O)Nc2ccn([C@@H]3O[C@H](CO)[C@@H](O)C3(F)F)c(=O)n2)nc1` [Example 21, N-(1-((2R,4R,5R)-3,3-difluoro-4-hydroxy-5-(hydroxymethyl)tetrahydrofuran-2-yl)-2-oxo-1,2-dihydropyrimidin-4-yl)-5-methoxypicolinamide], the CC50 at 3 days (in data set [1]; in the data set “in vitro”) was above 100 µM each time. Besides, the pEC50 with DENV is 5.89; with Influenza virus B/Lee/40 it was 4.65. In addition, in the data set with Influenza virus B/Lee/40, the “Selectivity index FluB Lee” value was above 4.5.

Take `COc1ccc(C(=O)Nc2ccn([C@@H]3O[C@H](CO)[C@@H](O)C3(F)F)c(=O)n2)cn1` [Example 22, N-(1-((2R,4R,5R)-3,3-difluoro-4-hydroxy-5-(hydroxymethyl)tetrahydrofuran-2-yl)-2-oxo-1,2-dihydropyrimidin-4-yl)-6-methoxynicotinamide]: the CC50 at 3 days in data set [1] was below 1.2 µM; in “in vitro” it was above 100 µM. Moreover, the negative logarithm of the EC50 (pEC50) in the data set with DENV was above 5.92; in the data set with Influenza virus B/Lee/40, 4.61. Also, the “Selectivity index FluB Lee” value with Influenza virus B/Lee/40 was above 4.1.

Take `O=C(Nc1ccn([C@@H]2O[C@H](CO)[C@@H](O)C2(F)F)c(=O)n1)c1ccc(Cl)nc1` [Example 23, 6-Chloro-N-(1-((2R,4R,5R)-3,3-difluoro-4-hydroxy-5-(hydroxymethyl)tetrahydrofuran-2-yl)-2-oxo-1,2-dihydropyrimidin-4-yl)nicotinamide]: the CC50 at 3 days is below 1.2 µM in data set [1] and above 100 µM in the data set “in vitro”. The negative-log EC50 (pEC50) was above 5.92 in the data set with DENV and 5.21 with Influenza virus B/Lee/40. For the same compound, the “Selectivity index FluB Lee” value with Influenza virus B/Lee/40 is above 16.1.

For the compound `Cc1nccc(C(=O)Nc2ccn([C@@H]3O[C@H](CO)[C@@H](O)C3(F)F)c(=O)n2)n1` [Example 24, N-(1-((2R,4R,5R)-3,3-difluoro-4-hydroxy-5-(hydroxymethyl)tetrahydrofuran-2-yl)-2-oxo-1,2-dihydropyrimidin-4-yl)-2-methylpyrimidin-4-carboxamide], the CC50 at 3 days is 55.4 µM in data set [1] and above 100 µM in “in vitro”. In addition, the pEC50 in the data set with DENV and with Influenza virus B/Lee/40 was above 5.92 throughout. In the data set on Influenza virus B/Lee/40, the “Selectivity index FluB Lee” value is on record as above 83.

Take `O=C(Nc1ccn([C@@H]2O[C@H](CO)[C@@H](O)C2(F)F)c(=O)n1)c1ccc(-c2ccccc2)cn1` [Example 25, N-(1-((2R,4R,5R)-3,3-difluoro-4-hydroxy-5-(hydroxymethyl)tetrahydrofuran-2-yl)-2-oxo-1,2-dihydropyrimidin-4-yl)-5-phenylpicolinamide]: the CC50 at 3 days was 29.5 µM in data set [1] and above 100 µM in “in vitro”. The negative-log EC50 (pEC50) was above 5.92 in the data set on DENV and 5.21 in the data set on Influenza virus B/Lee/40. Moreover, the “Selectivity index FluB Lee” value in the data set with Influenza virus B/Lee/40 is recorded as above 16.4.

In the case of `CCC(CC)O[C@@H]1C=C(C(=O)O)C[C@H](N)[C@H]1NC(C)=O` [OSV-C, oseltamivir carboxylate, reference compound], the negative-log EC50 (pEC50) in the data set on Influenza virus B/Lee/40 is 5.84.

Regarding `NC(=O)c1ncn([C@@H]2O[C@H](CO)[C@@H](O)[C@H]2O)n1` [RBV, ribavirin, reference compound], the pEC50 in the data set with Influenza virus B/Lee/40 is 4.39.
